How the values were obtained:
PRMT5 [1] = target: T1, PRMT5 (Homo sapiens, UniProt O14744); test: PRMT5 biochemical IC50 assay with no cofactor; conditions: PRMT5, no cofactor; read-out: No Cofactor/rel IC50
T1 construct: purchased Viva (custom protein)
From the text: Table 1 indicates IC50 values (μM) against PRMT5 for exemplary compounds in the presence of SAM as cofactor, with no cofactor, and with MTA as cofactor, respectively (columns 4-6). […] Ki values can be calculated from the IC50 values as described in the Examples section. As detailed in the Examples section, for the assay performed in the presence of SAM, IC50=Ki×1.5 (Ki=IC50/1.5).

[2] = tested on: HAP1 MTAP-deleted cell line; test: Viability assay, MTAP-deleted cell line; type: cell-based; conditions: Homo sapiens, HAP1, viability assay, MTAP-deleted cell line; read-out: HAP1 MTAP deleted viability
From the text: Table 1 additionally indicates IC50 values in a viability assay for the MTAP-deleted cell line (column 10), indicating the effect of treatment with compound on cell survival.

PRMT5 [3] = target: T1, PRMT5; test: PRMT5 biochemical IC50 assay with SAM as cofactor; conditions: PRMT5, SAM as cofactor; read-out: SAM IC50
[4] = tested on: HAP1 MTAP-intact cell line; test: SDMA in-cell western assay, HAP1 MTAP-intact; type: cell-based; conditions: Homo sapiens, HAP1, SDMA in-cell western, HAP1 MTAP-intact; read-out: MTAP HAP1 intact IC50
Procedure, shortened: (§1)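 Isogenic HAP1 pair: the MTAP-intact line expresses endogenous MTAP, and the deleted line is MTAP-null. Symmetric dimethylarginine was detected by in-cell western and IC50 values derived for each line.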

PRMT5 [5] = target: T1, PRMT5; test: PRMT5 biochemical IC50 assay with MTA as cofactor; conditions: PRMT5, MTA as cofactor; read-out: MTA IC50
[6] = tested on: HAP1 MTAP-deleted cell line; test: SDMA in-cell western assay, HAP1 MTAP-deleted; type: cell-based; conditions: for IC50: Homo sapiens, HAP1, SDMA in-cell western, HAP1 MTAP-deleted, read-out: HAP1 MTAP deleted IC50; for MTAP intact/deleted ratio: IC50 ratio HAP1 MTAP-intact vs HAP1 MTAP-deleted, SDMA in-cell western
Procedure, shortened: as §1

T1 sequence (O14744 whole entry): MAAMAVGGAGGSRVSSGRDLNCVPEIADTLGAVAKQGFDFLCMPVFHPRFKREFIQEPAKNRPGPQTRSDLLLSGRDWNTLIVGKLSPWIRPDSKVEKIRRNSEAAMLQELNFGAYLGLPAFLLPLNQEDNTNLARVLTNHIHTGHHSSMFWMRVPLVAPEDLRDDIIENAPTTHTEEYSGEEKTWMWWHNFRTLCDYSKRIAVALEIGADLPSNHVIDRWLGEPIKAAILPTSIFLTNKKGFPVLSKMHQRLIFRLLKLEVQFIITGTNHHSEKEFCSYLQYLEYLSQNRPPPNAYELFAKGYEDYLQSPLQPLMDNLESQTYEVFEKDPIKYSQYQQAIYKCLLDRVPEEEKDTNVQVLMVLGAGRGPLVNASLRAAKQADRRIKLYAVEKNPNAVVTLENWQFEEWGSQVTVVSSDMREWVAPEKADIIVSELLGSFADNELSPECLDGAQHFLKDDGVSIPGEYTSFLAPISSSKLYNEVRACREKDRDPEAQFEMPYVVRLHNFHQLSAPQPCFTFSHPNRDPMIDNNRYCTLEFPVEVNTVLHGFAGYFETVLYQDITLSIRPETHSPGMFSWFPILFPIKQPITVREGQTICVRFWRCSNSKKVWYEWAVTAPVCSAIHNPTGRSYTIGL
T1 sequence (Q9BQA1 whole entry partner): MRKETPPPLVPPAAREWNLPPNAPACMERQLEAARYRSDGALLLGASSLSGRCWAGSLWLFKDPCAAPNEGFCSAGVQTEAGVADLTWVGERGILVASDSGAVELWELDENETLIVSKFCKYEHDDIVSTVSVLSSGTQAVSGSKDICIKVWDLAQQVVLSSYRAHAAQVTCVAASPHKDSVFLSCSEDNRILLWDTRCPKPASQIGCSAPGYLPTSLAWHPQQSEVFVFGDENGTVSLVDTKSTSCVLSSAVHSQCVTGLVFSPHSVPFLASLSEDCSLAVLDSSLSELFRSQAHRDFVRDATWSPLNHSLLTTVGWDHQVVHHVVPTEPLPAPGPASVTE

SMILES	IC50 (PRMT5 [1]) [nM]	IC50 (PRMT5 [3]) [nM]	IC50 [4] [nM]	IC50 (PRMT5 [5]) [nM]	IC50 [6] [nM]	IC50 [2] [nM]	MTAP intact/deleted ratio [6]
CCc1cc(NC(=O)C(=O)N2C[C@@H](C)CC[C@@H]2c2ccc3sc(C4CC5CCC(C4)N5C)nc3c2)cnc1N (stereo partly drawn) [Compound 1187, N-(6-amino-5-ethyl-3-pyridyl)-2-[(2R,5S)-5-methyl-2-[2-(8-methyl-8-azabicyclo[3.2.1]octan-3-yl)-1,3-benzothiazol-5-yl]-1-piperidyl]-2-oxo-acetamide]	< 50	< 50	< 100	< 50	< 100	< 1000	A (an IC50 ratio greater than or equal to 10 fold)
CCc1cc(NC(=O)C(=O)N2C[C@@H](C)CC[C@@H]2c2ccc3sc([C@H]4CN(C)CCO4)nc3c2)cnc1N [Compound 1202, N-(6-amino-5-ethyl-3-pyridyl)-2-oxo-2-[(2R,5S)-5-methyl-2-[2-[(2R)-4-methylmorpholin-2-yl]-1,3-benzothiazol-5-yl]-1-piperidyl]acetamide]	< 50	50 to 500	< 100	< 50	< 100	< 1000	A (an IC50 ratio greater than or equal to 10 fold)
COc1cc(NC(=O)C(=O)N2C[C@@H](C)CC[C@@H]2c2ccc3sc(C4CCN(C)CC4)nc3c2)cnc1N [Compound 1203, N-(6-amino-5-methoxypyridin-3-yl)-2-((2R,5)-5-methyl-2-(2-(1-methylpiperidin-4-yl)benzo[d]thiazol-5-yl)piperidin-1-yl)-2-oxoacetamide]	< 50	< 50	< 100	< 50	< 100	< 1000	A (an IC50 ratio greater than or equal to 10 fold)
CCc1cc(NC(=O)C(=O)N2C[C@@H](C)CC[C@@H]2c2ccc(OCC3CCN(C)CC3)cc2)cnc1N [Compound 1206]	< 50	50 to 500	100 to 1000	< 50	< 100	< 1000	A (an IC50 ratio greater than or equal to 10 fold)
CCc1cc(NC(=O)C(=O)N2C[C@@H](C)CC[C@@H]2c2ccc3sc(C45CC(CN(C)C4)C5)nc3c2)cnc1N [Compound 1212, N-(6-amino-5-ethylpyridin-3-yl)-2-((2R,5S)-5-methyl-2-(2-(3-methyl-3-azabicyclo[3.1.1]heptan-1-yl)benzo[d]thiazol-5-yl)piperidin-1-yl)-2-oxoacetamide]	< 50	< 50	< 100	< 50	< 100	< 1000	B (an IC50 ratio greater than or equal to 3 fold but lower than 10 fold)
Cc1cc(NC(=O)C(=O)N2C[C@@H](C)CC[C@@H]2c2ccc3sc(-c4cn(C)cn4)nc3c2)cnc1N [Compound 1214, N-(6-amino-5-methylpyridin-3-yl)-2-((2R,5S)-5-methyl-2-(2-(1-methyl-1H-imidazol-4-yl)benzo[d]thiazol-5-yl)piperidin-1-yl)-2-oxoacetamide]	< 50	50 to 500	100 to 1000	< 50	< 100	< 1000	A (an IC50 ratio greater than or equal to 10 fold)

Second part, led by results:

IC50 (PRMT5 [1]) [nM]	IC50 (PRMT5 [3]) [nM]	IC50 [4] [nM]	IC50 (PRMT5 [5]) [nM]	IC50 [6] [nM]	SMILES	IC50 [2] [nM]	MTAP intact/deleted ratio [6]
< 50	50 to 500	< 100	< 50	< 100	Cc1cc(NC(=O)C(=O)N2C[C@@H](C)CC[C@@H]2c2ccc3sc(-c4nccn4C)nc3c2)cnc1N [Compound 1186, N-(6-amino-5-methylpyridin-3-yl)-2-((2R,5S)-5-methyl-2-(2-(1-methyl-1H-imidazol-2-yl)benzo[d]thiazol-5-yl)piperidin-1-yl)-2-oxoacetamide]	< 1000	A (an IC50 ratio greater than or equal to 10 fold)
< 50	50 to 500	100 to 1000	< 50	< 100	CCc1cc(NC(=O)C(=O)N2C[C@@H](C)CC[C@@H]2c2ccc3sc(-c4nccn4C)nc3c2)cnc1N [Compound 1192, N-(6-amino-5-ethylpyridin-3-yl)-2-((2R,5S)-5-methyl-2-(2-(1-methyl-1H-imidazol-2-yl)benzo[d]thiazol-5-yl)piperidin-1-yl)-2-oxoacetamide]	< 1000	A (an IC50 ratio greater than or equal to 10 fold)
< 50	50 to 500	100 to 1000	< 50	< 100	CCc1cc(NC(=O)C(=O)N2C[C@@H](C)CC[C@@H]2c2ccc3sc(-c4ccncc4)nc3c2)cnc1N [Compound 1194, N-(6-amino-5-ethylpyridin-3-yl)-2-((2R,5S)-5-methyl-2-(2-(pyridin-4-yl)benzo[d]thiazol-5-yl)piperidin-1-yl)-2-oxoacetamide]	< 1000	A (an IC50 ratio greater than or equal to 10 fold)
< 50	50 to 500	< 100	< 50	< 100	CCc1cc(NC(=O)C(=O)N2C[C@@H](C)CC[C@@H]2c2ccc3sc(CCN(C)C4COC4)nc3c2)cnc1N [Compound 1195, N-(6-amino-5-ethylpyridin-3-yl)-2-((2R,5S)-5-methyl-2-(2-(2-(methyl(oxetan-3-yl)amino)ethyl)benzo[d]thiazol-5-yl)piperidin-1-yl)-2-oxoacetamide]	< 1000	A (an IC50 ratio greater than or equal to 10 fold)
< 50	50 to 500	< 100	< 50	< 100	CCc1cc(NC(=O)C(=O)N2C[C@@H](C)CC[C@@H]2c2ccc3sc(C[C@@H](C)N(C)C)nc3c2)cnc1N [Compound 1198, N-(6-amino-5-ethylpyridin-3-yl)-2-((2R,5S)-2-(2-((R)-2-(dimethylamino)propyl)benzo[d]thiazol-5-yl)-5-methylpiperidin-1-yl)-2-oxoacetamide]	< 1000	A (an IC50 ratio greater than or equal to 10 fold)
< 50	50 to 500	100 to 1000	< 50	< 100	CCc1cc(NC(=O)C(=O)N2C[C@@H](C)CC[C@@H]2c2ccc3cn(C)nc3c2)cnc1N [Compound 1199, N-(6-amino-5-ethyl-3-pyridyl)-2-[(5S)-5-methyl-2-(2-methylindazol-6-yl)-1-piperidyl]-2-oxo-acetamide]	< 1000	A (an IC50 ratio greater than or equal to 10 fold)
< 50	50 to 500	100 to 1000	< 50	< 100	CCc1cc(NC(=O)C(=O)N2C[C@@H](C)CC[C@@H]2c2ccc3sc(-c4cccnc4)nc3c2)cnc1N [Compound 1200, N-(6-amino-5-ethylpyridin-3-yl)-2-((2R,5S)-5-methyl-2-(2-(pyridin-3-yl)benzo[d]thiazol-5-yl)piperidin-1-yl)-2-oxoacetamide]	< 1000	A (an IC50 ratio greater than or equal to 10 fold)
